Molecules are shown by their SMILES. Activity calls are given as the source filed them. The calls are words filed in the database; no cut-off is given here.

The source of these data is ChEMBL document CHEMBL5034019, “Discovery of the Next-Generation Pan-TRK Kinase Inhibitors for the Treatment of Cancer” (J Med Chem, 2021).

Series [1] can be described thus: AUC (0 to t) in Sprague-Dawley rat at 3 mg/kg measured up to 24 hrs by LC-MS/MS analysis. The class given is ADME, organism-based. Also noted: dose 3 mg/kg, time <=24. Conditions: in vivo.
A short description of series [2]: C0 in Sprague-Dawley rat at 3 mg/kg measured up to 24 hrs by LC/MS/MS analysis. The class given is ADME, organism-based. The note with it: in vivo.
Series [3] has as its system BaF3. Kind of series: Antitumor activity against mouse BaF3 cells transfected with LMNA-NTRK1-G595R mutant xenografted in mouse assessed as tumor growth inhibition at 100 mg/kg, po administered once daily for 21 days and measured twice weekly. The note with it: time 21.0 day.
Series [4] in a line: Tmax in Sprague-Dawley rat at 10 mg/kg, po measured up to 24 hrs by LC-MS analysis. The class given is ADME, organism-based. The note with it: in vivo.
The nature of series [5]: Toxicity in mouse xenografted with mouse BaF3 cells transfected with LMNA-NTRK1-G595R mutant assessed as unkempt appearance at 100 mg/kg, po administered once daily for 21 days and measured twice weekly. Conditions: in vivo, 504 h.
For series [6], the system named is Hepatocyte growth factor receptor (Homo sapiens), P08581 [D1246H]. Nature of the series: Inhibition of recombinant human Met D1246H mutant (974 to end residues) assessed as residual activity at 0.5 uM using KKKGQEEEYVFIE as substrate incubated for 40 mins in presence of [gamma-33P]-ATP by scintillation counting method relative to control.
A short description of series [7]: Clearance in male Sprague-Dawley rat at 2 mg/kg, iv measured up to 24 hrs by LC/MS/MS analysis. The format is ADME, organism-based. The note with it: in vivo.
For series [8], the target named is High affinity nerve growth factor receptor (Homo sapiens, UniProt P04629, G595R).
Sequence of High affinity nerve growth factor receptor (P04629 33-796 G595R limits assumed): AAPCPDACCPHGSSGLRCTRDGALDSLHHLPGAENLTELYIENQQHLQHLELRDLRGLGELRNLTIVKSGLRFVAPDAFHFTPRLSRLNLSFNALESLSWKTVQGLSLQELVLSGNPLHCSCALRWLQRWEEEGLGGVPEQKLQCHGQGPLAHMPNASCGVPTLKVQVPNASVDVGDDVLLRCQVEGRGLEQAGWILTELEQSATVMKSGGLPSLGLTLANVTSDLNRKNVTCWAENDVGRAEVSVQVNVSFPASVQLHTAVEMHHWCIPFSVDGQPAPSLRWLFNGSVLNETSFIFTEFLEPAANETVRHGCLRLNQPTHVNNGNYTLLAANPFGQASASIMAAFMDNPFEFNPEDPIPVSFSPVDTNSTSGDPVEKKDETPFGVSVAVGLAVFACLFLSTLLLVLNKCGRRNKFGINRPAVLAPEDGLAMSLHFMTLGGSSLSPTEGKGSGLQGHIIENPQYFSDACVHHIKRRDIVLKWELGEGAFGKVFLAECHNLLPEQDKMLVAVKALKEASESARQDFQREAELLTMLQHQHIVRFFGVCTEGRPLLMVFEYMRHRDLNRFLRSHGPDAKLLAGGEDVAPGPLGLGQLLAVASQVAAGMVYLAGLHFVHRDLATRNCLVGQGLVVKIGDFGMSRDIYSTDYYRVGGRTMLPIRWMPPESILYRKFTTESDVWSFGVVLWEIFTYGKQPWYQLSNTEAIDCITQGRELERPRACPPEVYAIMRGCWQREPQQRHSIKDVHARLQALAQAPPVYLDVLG
The nature of series [9]: Oral bioavailability in male Sprague-Dawley rat at 10 mg/kg measured up to 24 hrs by LC/MS/MS analysis. Conditions: in vivo. The class given is ADME, organism-based.
In series [10] the target is Mast/stem cell growth factor receptor Kit (Homo sapiens) (UniProt P10721). Nature of the series: Inhibition of recombinant human c-Kit (544 to end residues) assessed as residual activity at 0.5 uM using poly(Glu, Tyr) 4:1 as substrate measured after 40 mins in presence of [gamma33P]ATP by scintillation counting method.
Sequence of Mast/stem cell growth factor receptor Kit (Homo sapiens) (P10721 whole entry): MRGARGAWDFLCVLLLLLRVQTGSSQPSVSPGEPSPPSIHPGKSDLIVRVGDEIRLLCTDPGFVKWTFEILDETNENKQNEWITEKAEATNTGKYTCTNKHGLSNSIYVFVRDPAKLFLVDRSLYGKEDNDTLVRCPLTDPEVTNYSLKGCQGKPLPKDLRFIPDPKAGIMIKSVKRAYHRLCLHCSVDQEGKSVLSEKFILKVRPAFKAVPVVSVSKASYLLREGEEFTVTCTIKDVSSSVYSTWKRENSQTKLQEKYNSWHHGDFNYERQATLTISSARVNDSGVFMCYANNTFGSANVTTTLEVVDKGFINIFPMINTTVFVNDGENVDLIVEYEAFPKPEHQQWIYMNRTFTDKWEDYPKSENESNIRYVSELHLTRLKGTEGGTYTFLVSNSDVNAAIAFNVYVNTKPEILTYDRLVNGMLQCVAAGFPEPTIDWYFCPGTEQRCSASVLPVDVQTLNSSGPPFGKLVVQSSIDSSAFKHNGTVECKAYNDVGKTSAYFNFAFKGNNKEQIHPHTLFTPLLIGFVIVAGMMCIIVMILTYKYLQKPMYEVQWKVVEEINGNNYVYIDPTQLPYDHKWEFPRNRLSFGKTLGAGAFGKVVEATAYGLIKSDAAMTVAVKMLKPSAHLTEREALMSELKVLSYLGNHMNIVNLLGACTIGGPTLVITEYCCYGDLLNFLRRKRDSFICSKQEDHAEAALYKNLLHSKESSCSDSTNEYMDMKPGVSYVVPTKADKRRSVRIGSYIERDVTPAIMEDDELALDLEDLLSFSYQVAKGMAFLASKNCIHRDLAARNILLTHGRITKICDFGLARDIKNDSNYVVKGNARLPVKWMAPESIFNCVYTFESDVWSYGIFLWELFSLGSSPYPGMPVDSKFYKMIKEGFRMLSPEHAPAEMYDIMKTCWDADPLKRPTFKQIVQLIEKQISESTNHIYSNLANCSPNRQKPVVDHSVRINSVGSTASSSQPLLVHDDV
In series [11] the test system is Proto-oncogene tyrosine-protein kinase receptor Ret (Homo sapiens), P07949 [V804L]. Kind of series: Inhibition of recombinant human Ret V804L mutant (658 to end residues) assessed as residual activity at 0.5 uM using KKKSPGEYVNIEFG as substrate incubated for 40 mins in presence of [gamma33P]ATP by scintillation counting based radiometry assay relative to control.

In series [12] the target is NT-3 growth factor receptor (Homo sapiens, UniProt Q16288).
Sequence of NT-3 growth factor receptor (Q16288 whole entry, the tested form may be a part): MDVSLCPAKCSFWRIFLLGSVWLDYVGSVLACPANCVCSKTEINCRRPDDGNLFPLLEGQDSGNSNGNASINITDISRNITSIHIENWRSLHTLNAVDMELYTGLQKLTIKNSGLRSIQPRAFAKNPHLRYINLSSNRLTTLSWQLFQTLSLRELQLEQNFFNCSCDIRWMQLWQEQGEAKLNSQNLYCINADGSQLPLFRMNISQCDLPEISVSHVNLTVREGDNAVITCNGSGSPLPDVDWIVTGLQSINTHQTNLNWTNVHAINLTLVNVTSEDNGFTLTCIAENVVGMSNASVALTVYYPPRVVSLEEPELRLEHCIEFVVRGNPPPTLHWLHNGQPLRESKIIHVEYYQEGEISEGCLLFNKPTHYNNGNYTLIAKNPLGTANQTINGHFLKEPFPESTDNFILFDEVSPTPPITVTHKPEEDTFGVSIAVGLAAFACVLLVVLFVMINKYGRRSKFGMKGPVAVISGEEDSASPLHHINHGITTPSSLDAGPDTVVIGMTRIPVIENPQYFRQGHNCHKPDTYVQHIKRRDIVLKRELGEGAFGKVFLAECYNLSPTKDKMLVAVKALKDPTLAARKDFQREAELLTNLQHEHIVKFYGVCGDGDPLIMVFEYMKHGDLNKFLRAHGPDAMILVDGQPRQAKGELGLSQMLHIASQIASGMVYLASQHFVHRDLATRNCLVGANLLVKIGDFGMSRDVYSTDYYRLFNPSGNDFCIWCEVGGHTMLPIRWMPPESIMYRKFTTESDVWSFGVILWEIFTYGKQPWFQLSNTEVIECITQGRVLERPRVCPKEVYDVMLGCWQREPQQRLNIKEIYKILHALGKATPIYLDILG
Description: Inhibition of TrKC (unknown origin) incubated for 120 mins in presence of 33P-ATP
Series [13] concerns the target Focal adhesion kinase 1 (Homo sapiens) (UniProt Q05397). Nature of the series: Inhibition of recombinant human FAK (411 to 686 residues) assessed as residual activity at 0.5 uM using EEEEYEEEEEEYYIIEEEEEEYEEEEEEYYEEEEEEKKKK as substrate at 40 mins in presence of [gamma-33ATP] by scintillation counting based radiometry assay relative to control.
Series [14] addresses Proto-oncogene tyrosine-protein kinase Src (Homo sapiens) (UniProt P12931). Nature of the series: Inhibition of human Src (1 to 530 residues) assessed as residual activity at 0.5 uM using GGEEEEYFELVKKKK as substrate measured after 40 mins in presence of [gamma33P]ATP by scintillation counting method relative to control.
Series [15] addresses ALK tyrosine kinase receptor (Homo sapiens, UniProt Q9UM73). Kind of series: Inhibition of human ALK (1058 to end residues) assessed as residual activity at 0.5 uM using KKKSPGEYVNIEFG as substrate incubated for 40 mins in presence of [gamma-33ATP] by scintillation counting based radiometry assay relative to control.
Series [16] relates to BaF3. Nature of the series: Antitumor activity against mouse BaF3 cells transfected with ETV6-NTRK3 xenografted in mouse assessed as tumor growth inhibition at 5 to 20 mg/kg, po administered once daily for 21 days and measured twice weekly. Conditions: dose 5-20 mg/kg, time 21.0 day.
Series [17] in a line: AUC (0 to t) in female Sprague-Dawley rat at 10 mg/kg, po measured up to 24 hrs by LC-MS/MS analysis. The format is ADME, organism-based. Further details: route oral, dose 10 mg/kg, time <=24. The note with it: in vivo.

Sequence of Proto-oncogene tyrosine-protein kinase Src (Homo sapiens) (P12931 2-536 limits assumed): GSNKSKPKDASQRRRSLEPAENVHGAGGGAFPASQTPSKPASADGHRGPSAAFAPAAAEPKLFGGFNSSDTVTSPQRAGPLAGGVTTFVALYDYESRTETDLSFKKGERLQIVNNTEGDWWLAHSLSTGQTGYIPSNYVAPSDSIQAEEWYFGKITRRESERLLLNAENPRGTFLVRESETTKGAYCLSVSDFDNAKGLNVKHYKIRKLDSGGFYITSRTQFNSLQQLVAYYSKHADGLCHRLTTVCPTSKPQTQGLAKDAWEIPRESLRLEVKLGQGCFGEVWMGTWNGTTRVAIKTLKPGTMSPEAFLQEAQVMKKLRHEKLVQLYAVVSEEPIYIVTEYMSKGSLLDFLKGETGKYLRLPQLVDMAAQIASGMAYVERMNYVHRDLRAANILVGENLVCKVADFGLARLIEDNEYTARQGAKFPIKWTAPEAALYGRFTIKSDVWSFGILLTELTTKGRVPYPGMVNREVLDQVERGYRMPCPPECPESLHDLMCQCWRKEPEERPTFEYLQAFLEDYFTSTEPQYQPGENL
Sequence of ALK tyrosine kinase receptor (Q9UM73 19-1620 limits assumed): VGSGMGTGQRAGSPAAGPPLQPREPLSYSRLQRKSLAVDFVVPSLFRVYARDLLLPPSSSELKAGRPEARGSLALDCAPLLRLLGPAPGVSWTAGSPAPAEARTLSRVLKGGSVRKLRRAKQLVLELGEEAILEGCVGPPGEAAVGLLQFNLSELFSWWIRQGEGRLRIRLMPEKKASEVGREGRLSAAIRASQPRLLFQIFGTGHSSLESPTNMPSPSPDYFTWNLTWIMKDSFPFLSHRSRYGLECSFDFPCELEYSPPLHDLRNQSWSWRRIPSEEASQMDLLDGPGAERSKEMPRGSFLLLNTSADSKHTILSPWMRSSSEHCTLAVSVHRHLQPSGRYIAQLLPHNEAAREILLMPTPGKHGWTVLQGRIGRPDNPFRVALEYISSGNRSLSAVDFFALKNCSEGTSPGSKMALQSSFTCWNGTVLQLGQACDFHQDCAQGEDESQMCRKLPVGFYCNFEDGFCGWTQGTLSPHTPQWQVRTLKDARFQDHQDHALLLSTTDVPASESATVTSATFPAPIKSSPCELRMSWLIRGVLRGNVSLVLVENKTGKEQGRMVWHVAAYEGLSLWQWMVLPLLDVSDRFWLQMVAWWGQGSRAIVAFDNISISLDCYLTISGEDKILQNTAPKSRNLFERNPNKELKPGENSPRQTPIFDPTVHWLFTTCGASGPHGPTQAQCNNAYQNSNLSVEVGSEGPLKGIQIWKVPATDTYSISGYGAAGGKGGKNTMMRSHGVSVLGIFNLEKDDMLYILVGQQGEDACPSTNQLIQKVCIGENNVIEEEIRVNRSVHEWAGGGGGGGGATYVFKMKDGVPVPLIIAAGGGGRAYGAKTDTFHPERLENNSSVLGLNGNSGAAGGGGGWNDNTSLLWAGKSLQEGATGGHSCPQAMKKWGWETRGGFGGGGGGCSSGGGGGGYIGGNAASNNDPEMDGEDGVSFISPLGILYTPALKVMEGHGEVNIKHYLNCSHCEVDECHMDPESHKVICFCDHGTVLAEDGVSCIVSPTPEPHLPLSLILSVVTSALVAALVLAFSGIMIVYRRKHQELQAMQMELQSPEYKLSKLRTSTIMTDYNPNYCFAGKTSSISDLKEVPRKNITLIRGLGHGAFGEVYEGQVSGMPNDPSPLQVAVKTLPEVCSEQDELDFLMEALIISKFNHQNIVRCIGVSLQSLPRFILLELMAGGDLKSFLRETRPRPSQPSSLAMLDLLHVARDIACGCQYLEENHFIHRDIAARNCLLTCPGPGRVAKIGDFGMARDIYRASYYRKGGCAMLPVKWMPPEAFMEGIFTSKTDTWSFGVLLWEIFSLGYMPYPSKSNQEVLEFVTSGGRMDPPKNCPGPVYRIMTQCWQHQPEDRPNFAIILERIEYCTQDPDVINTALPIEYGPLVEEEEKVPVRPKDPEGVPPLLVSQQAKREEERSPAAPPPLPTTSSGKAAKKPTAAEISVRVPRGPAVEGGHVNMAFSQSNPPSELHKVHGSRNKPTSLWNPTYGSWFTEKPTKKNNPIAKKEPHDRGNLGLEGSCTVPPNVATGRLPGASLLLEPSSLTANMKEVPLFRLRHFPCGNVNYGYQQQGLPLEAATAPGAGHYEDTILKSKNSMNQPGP

`C[C@@H]1CCc2ncc(F)cc2[C@H]2CCCN2c2ccn3ncc(c3n2)C(=O)N1` [SELITRECTINIB] returned an AUC(0-t) at 24 h in series [1] of 11.1 µM·h. Further, the C0 in [2] was found to be 23.779 µM. The outcome in the series with BaF3 [3] was Active. Besides, the Tmax in [4] was 24 min. In addition, the Activity entry in [5] was “Toxic”.
Consider `O=C1NC2(CC2)COc2ncc(F)cc2[C@H]2COCCN2c2ccn3ncc1c3n2`, for which the Activity turned out to be 91% in [6]; 100% in series [10]; 59% in series [11]; 72% in series [13]; 33% in series [14]; 26% in series [15]. In series [7], this molecule yielded a clearance of 19.3 mL/min/kg. Besides, the IC50 in series [8] stood at 3.5 nM; in series [12], 0.2 nM. Moreover, the bioavailability in series [9] came to 56%. The outcome with BaF3 [16] was Active. This molecule also registered an AUC(0-t) at 24 h in [17] of 31.7 µM·h.

One may read the AUC(0-t) as the area under the concentration-time curve up to a stated or last time point. Read a high AUC(0-t) as high exposure. By Tmax is commonly meant the time from dosing to the highest level. As usually defined, the clearance is the volume of plasma or blood freed of the substance per unit of time. For orientation: IC50 means the concentration that inhibits the measured activity by half. A low value points to inhibition by little substance. The bioavailability is dose-corrected exposure relative to a reference, in per cent. Higher therefore signals good availability.
